Results as given in patent US20100196282A1, “OPTICAL IMAGING AGENTS” (priority 2007, published 2010).
Where a SMILES comes first, the peptide text is derived from it. Bridges are numbered along the chain shown (N, C = ends). The star is where a group is joined. X8 = CC1=CC(C)(C)N(CCCS(=O)(=O)O)c2cc3c(cc21)/C(=C/C=C/C1=[N+](CCCS(=O)(=O)[O-])c2ccc(S(=O)(=O)O)cc2C1(C)CCCC(=O)*)C=C(C(C)(C)C)O3; X7 = CCN1c2cc3c(cc2C(C)=CC1(C)C)/C(=C/C=C/C1=[N+](CCCS(=O)(=O)[O-])c2ccc(S(=O)(=O)O)cc2C1(C)CCCC(=O)*)C=C(C(C)(C)C)O3; X2 = CCN1c2cc3c(cc2C(C)=CC1(C)C)/C(=C/C=C/C1=[N+](CCCCCC(=O)*)c2ccc(S(=O)(=O)[O-])cc2C1(C)C)C=C(C(C)(C)C)O3; X3 = CCN(CCCS(=O)(=O)O)c1ccc2c(c1)OC(C(C)(C)C)=C/C2=C\C=C\C1=[N+](CCCCCC(=O)*)c2ccc(S(=O)(=O)[O-])cc2C1(C)C; X9 = CCN(CC)c1ccc2c(c1)OC(C(C)(C)C)=C/C2=C\C=C\C1=[N+](CCCS(=O)(=O)[O-])c2ccc(S(=O)(=O)O)cc2C1(C)CCCC(=O)*

Key:
[1] = system: HT-29 human colon carcinoma tumour (c-Met expressing); experiment: In vivo optical imaging of HT-29 tumour-bearing nude mice; design: species or system mouse; conditions: HT-29 s.c. tumours in female BALB c/A nude mice, i.v., 635 nm excitation
Excerpt: Female BALB c/A nude (Born) mice were used in the study. The use of the animals was approved by the local ethics committee. BALB c/A nude is an inbred immunocompromised mouse strain with a high take rate for human tumours as compared to other nude mice strains. The mice were 8 weeks old upon arrival and with a body weight of approx. 20 grams at the start of the study. The animals were housed in individually ventilated cages (IVC, Scanbur BK) with HEPA filtered air. The animals had ad libitum access to “Rat and Mouse nr. 3 Breeding” diet (Scanbur BK) and tap water acidified by addition of HCl to a molar concentration of 1 mM (pH 3.0).
The colon cancer cell HT-29 is derived from human colon carcinomas and is reported to express c-Met according to Zeng et al [Clin. Exp. Metastasis, 21, 409-417. (2004)]. The cell line was proven to be tumorigenic when inoculated subcutaneously into nude mice [Flatmark et al, Eur. J. Cancer 40, 1593-1598 (2004)].
HT-29 cells were grown in McCoy's 5a medium (Sigma #M8403) supplemented with 10% fetal bovine serum and penicillin/streptomycin. Stocks were made at passage number four (P4) and frozen down for storage in liquid nitrogen at 10^7 cells/vial in the respective culture media containing 5% DMSO. On the day of the transplantation, the cells were thawed quickly in 37° C. water bath (approx. 2 min), washed and resuspended in PBS/2% serum (centrifugation at 1200 rpm for 10 min). Thorough mixing of cells in the vials was ensured every time the cells were aspirated into the dosing syringe. A volume of 0.1 ml of cell suspension was injected s.c. at the shoulder and at the back using a fine bore needle (25 G). The animals were then returned to their cages and the tumours were allowed to grow for 13-17 days. The animals were allowed an acclimatisation period of at least 5 days before the inoculation procedure.
All test substances were reconstituted with PBS from freeze-dried powder. A small stack of white printer paper was imaged to obtain a flat field image which was used to correct for illumination inhomogeneities.
For immobilisation during the optical imaging procedure, the animals were anaesthetized in a coaxial open mask to light surgical level anaesthesia with Isoflurane (typically 1.3-2%), using oxygen as the carrier gas. A small piece of skin (3-5 mm) was removed over parts of the tumour and adjacent muscle using a surgical forceps and fine scissors while the animal was anaesthetized. This was done to measure the signal from tumour and muscle without interference from the overlying skin tissue. The wound was covered by applying a liquid, non-fluorescent bandage spray (3M, MN, USA).
The respiration and body temperature of the animal was monitored with a BioVet system (m2m Imaging Corp, NJ, USA) using a pneumatic sensor underneath the animal and a rectal temperature probe. The BioVet system also supplied external heating using a heating mat set to 40° C. to sustain normal body temperature for the duration of the imaging procedure (2 hours). A Venflon catheter was placed in the tail vein for contrast agent administration. Each animal was given one contrast agent injection. The injected volume was 0.1 ml of test compound followed immediately by a 0.2 ml saline flush. Fluorescence images were acquired just prior to injection and then every 30 seconds for 2 hours.
Imaging was performed through a clinical laparoscope adapted to use a light source to excite the reporter and a filtering system to extract the fluorescence component. […]

human c-Met/Fc chimera = target: T1, human c-Met/Fc chimera (Homo sapiens, UniProt P08581); experiment: Fluorescence polarisation assay, affinity binding to cMet; conditions: 5 nM dye-labelled peptide, c-Met/Fc 0-250 nM, 10 min at 30° C., one-site binding
T1 construct: Fc (immunoglobulin Fc fusion partner); purchased R&D Systems
Protocol: Monochromatic light passes through a […] polarizing filter and excites fluorescent molecules in the sample. Only those molecules that oriented properly in the vertically polarized plane adsorb light, become excited, and subsequently emit light. The emitted light is measured in both horizontal and vertical planes. The anisotropy value (A), is the ratio between the light intensities following the equation
The fluorescence anisotropy measurements were performed in 384-well microplates in a volume of 10 μL in binding buffer (PBS, 0.01% Tween-20, pH 7.5) using a Tecan Safire fluorescence polarisation plate reader (Tecan, US) at Ex 635/Em 678 nm. The concentration of dye-labelled peptide was held constant (5 nM) and the concentration of the human c-Met/Fc chimera (R&D Systems) was varied from 0-250 nM. Binding mixtures were equilibrated in the microplate for 10 min at 30° C. The observed change in anisotropy was fitted to the equation: […]
where robs is the observed anisotropy, rfree is the anisotropy of the free peptide, rbound is the anisotropy of the bound peptide, Kd is the dissociation constant, cMet is the total c-Met concentration, and P is the total dye-labelled peptide concentration. The equation assumes that the synthetic peptide and the receptor form a reversible complex in solution with 1:1 stoichiometry. Data fitting was done via nonlinear regression using SigmaPlot software to obtain the Kd value (one-site binding).
Compounds 1 to 6 were tested for binding towards human c-Met (Fc chimera).

human serum albumin [2] = target: T2, human serum albumin (Homo sapiens, UniProt P02768); experiment: in vitro
Excerpt: Fluorescence polarisation assay was used to examine the affinity binding of the imaging agent towards the cMet target as well as the binding properties related to plasma proteins. The principle of the fluorescence polarisation method can briefly be described as follows:
(§1) The change of the polarization value was used to assess the binding of the Compound to human serum albumin as a low change of polarisation value is associated to low binding being appropriate for in-vivo use.

in vitro = conditions: mouse, plasma
Excerpt: as §1

human serum albumin [3] = target: T2, human serum albumin

T2 sequence (P02768 25-609): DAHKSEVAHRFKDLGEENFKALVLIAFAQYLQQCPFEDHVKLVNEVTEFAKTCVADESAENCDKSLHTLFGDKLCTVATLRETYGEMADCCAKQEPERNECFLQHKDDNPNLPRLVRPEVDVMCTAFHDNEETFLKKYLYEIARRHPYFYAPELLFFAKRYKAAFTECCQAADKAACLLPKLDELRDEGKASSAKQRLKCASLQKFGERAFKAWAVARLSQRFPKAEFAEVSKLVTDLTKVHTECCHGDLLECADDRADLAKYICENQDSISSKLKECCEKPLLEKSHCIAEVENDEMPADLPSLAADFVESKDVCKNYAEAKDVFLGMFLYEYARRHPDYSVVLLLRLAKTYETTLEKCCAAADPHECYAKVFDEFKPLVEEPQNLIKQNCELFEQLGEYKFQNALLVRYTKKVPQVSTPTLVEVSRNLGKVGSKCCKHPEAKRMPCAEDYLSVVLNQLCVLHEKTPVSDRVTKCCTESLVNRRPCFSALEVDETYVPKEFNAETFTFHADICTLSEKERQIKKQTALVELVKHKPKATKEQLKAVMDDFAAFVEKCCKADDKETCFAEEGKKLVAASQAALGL
T1 sequence (P08581 with tags, fused parts or gaps limits assumed): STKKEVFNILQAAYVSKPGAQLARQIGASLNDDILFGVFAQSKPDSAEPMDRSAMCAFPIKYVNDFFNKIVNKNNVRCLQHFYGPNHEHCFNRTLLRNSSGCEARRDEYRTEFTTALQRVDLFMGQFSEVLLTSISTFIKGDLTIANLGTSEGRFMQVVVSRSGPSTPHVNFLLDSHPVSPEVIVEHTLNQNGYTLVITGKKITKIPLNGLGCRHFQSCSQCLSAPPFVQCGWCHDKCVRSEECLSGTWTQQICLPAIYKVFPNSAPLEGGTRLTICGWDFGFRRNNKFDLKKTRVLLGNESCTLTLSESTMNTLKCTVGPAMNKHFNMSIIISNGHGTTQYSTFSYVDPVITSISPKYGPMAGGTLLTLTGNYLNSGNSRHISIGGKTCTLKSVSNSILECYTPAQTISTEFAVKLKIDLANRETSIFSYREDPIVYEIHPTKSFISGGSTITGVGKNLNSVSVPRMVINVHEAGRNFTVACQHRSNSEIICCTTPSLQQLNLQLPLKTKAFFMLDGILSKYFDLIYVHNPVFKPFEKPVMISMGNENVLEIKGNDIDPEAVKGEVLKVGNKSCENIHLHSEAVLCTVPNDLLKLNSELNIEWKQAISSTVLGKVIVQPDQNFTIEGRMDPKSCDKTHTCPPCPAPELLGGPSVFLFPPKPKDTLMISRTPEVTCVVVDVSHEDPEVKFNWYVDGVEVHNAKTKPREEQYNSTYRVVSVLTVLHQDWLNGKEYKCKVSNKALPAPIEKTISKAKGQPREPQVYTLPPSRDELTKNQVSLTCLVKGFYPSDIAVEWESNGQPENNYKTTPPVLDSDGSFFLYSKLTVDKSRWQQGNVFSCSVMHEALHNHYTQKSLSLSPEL
T1 sequence (P08581 25-307 limits assumed, change not shown): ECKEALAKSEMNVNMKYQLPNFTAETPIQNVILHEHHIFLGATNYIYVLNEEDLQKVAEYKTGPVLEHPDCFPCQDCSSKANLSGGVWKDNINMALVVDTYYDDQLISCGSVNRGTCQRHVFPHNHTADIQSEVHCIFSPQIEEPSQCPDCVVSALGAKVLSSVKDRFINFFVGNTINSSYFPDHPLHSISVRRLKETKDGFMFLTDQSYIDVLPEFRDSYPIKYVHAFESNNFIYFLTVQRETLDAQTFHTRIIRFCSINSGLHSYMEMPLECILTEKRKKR

Structure (SMILES)	Average tumour:muscle ratio (2 hours p.i.) [1]	Kd (human c-Met/Fc chimera) [nM]	fraction unbound (human serum albumin [2])	remaining at 2 h (in vitro) [%]	Binding human serum albumin (Biacore) (human serum albumin [3])
CCN(CC)c1ccc2c(c1)OC(C(C)(C)C)=C/C2=C\C=C\C1=[N+](CCCS(=O)(=O)[O-])c2ccc(S(=O)(=O)O)cc2C1(C)CCCC(=O)NCCCC[C@H](NC(=O)CNC(=O)CNC(=O)CNC(=O)[C@@H](NC(=O)CNC(=O)[C@H](CCC(=O)O)NC(=O)[C@@H](NC(=O)[C@H](CCC(=O)O)NC(=O)[C@H](Cc1ccc(O)cc1)NC(=O)[C@@H]1CSSC[C@H](NC(=O)[C@H](CO)NC(=O)CNC(=O)[C@H](C)NC(C)=O)C(=O)N[C@@H](Cc2ccc(O)cc2)C(=O)N[C@H]2CSSC[C@H](NC(=O)[C@H](CCC(=O)O)NC(=O)[C@H](Cc3ccccc3)NC(=O)[C@H](CCCNC(=N)N)NC(=O)[C@@H]3CCCN3C(=O)[C@@H]3CCCN3C(=O)CNC(=O)[C@H](CO)NC2=O)C(=O)N[C@@H](Cc2c[nH]c3ccccc23)C(=O)N1)[C@@H](C)O)[C@@H](C)O)C(N)=O (stereo partly shown) [Compound 2] (Ac-AGSCYCSGPPRFECWCYETEGTGGGK(X9)-NH2; disulfide 4-16, 6-14)	2.40	–	–	–	–
CCN(CCCS(=O)(=O)O)c1ccc2c(c1)OC(C(C)(C)C)=C/C2=C\C=C\C1=[N+](CCCCCC(=O)NCCCC[C@H](NC(=O)CNC(=O)CNC(=O)CNC(=O)[C@@H](NC(=O)CNC(=O)[C@H](CCC(=O)O)NC(=O)[C@@H](NC(=O)[C@H](CCC(=O)O)NC(=O)[C@H](Cc2ccc(O)cc2)NC(=O)[C@@H]2CSSC[C@H](NC(=O)[C@H](CO)NC(=O)CNC(=O)[C@H](C)NC(C)=O)C(=O)N[C@@H](Cc3ccc(O)cc3)C(=O)N[C@H]3CSSC[C@H](NC(=O)[C@H](CCC(=O)O)NC(=O)[C@H](Cc4ccccc4)NC(=O)[C@H](CCCNC(=N)N)NC(=O)[C@@H]4CCCN4C(=O)[C@@H]4CCCN4C(=O)CNC(=O)[C@H](CO)NC3=O)C(=O)N[C@@H](Cc3c[nH]c4ccccc34)C(=O)N2)[C@@H](C)O)[C@@H](C)O)C(N)=O)c2ccc(S(=O)(=O)[O-])cc2C1(C)C [Compound 3] (Ac-AGSCYCSGPPRFECWCYETEGTGGGK(X3)-NH2; disulfide 4-16, 6-14)	1.67	0.5	0.73	> 95	Low
CCN1c2cc3c(cc2C(C)=CC1(C)C)/C(=C/C=C/C1=[N+](CCCCCC(=O)NCCCC[C@H](NC(=O)CNC(=O)CNC(=O)CNC(=O)[C@@H](NC(=O)CNC(=O)[C@H](CCC(=O)O)NC(=O)[C@@H](NC(=O)[C@H](CCC(=O)O)NC(=O)[C@H](Cc2ccc(O)cc2)NC(=O)[C@@H]2CSSC[C@H](NC(=O)[C@H](CO)NC(=O)CNC(=O)[C@H](C)NC(C)=O)C(=O)N[C@@H](Cc4ccc(O)cc4)C(=O)N[C@H]4CSSC[C@H](NC(=O)[C@H](CCC(=O)O)NC(=O)[C@H](Cc5ccccc5)NC(=O)[C@H](CCCNC(=N)N)NC(=O)[C@@H]5CCCN5C(=O)[C@@H]5CCCN5C(=O)CNC(=O)[C@H](CO)NC4=O)C(=O)N[C@@H](Cc4c[nH]c5ccccc45)C(=O)N2)[C@@H](C)O)[C@@H](C)O)C(N)=O)c2ccc(S(=O)(=O)[O-])cc2C1(C)C)C=C(C(C)(C)C)O3 [Compound 4] (Ac-AGSCYCSGPPRFECWCYETEGTGGGK(X2)-NH2; disulfide 4-16, 6-14)	1.52	3.2	0.45	> 95	Very high
CCN1c2cc3c(cc2C(C)=CC1(C)C)/C(=C/C=C/C1=[N+](CCCS(=O)(=O)[O-])c2ccc(S(=O)(=O)O)cc2C1(C)CCCC(=O)NCCCC[C@H](NC(=O)CNC(=O)CNC(=O)CNC(=O)[C@@H](NC(=O)CNC(=O)[C@H](CCC(=O)O)NC(=O)[C@@H](NC(=O)[C@H](CCC(=O)O)NC(=O)[C@H](Cc1ccc(O)cc1)NC(=O)[C@@H]1CSSC[C@H](NC(=O)[C@H](CO)NC(=O)CNC(=O)[C@H](C)NC(C)=O)C(=O)N[C@@H](Cc2ccc(O)cc2)C(=O)N[C@H]2CSSC[C@H](NC(=O)[C@H](CCC(=O)O)NC(=O)[C@H](Cc4ccccc4)NC(=O)[C@H](CCCNC(=N)N)NC(=O)[C@@H]4CCCN4C(=O)[C@@H]4CCCN4C(=O)CNC(=O)[C@H](CO)NC2=O)C(=O)N[C@@H](Cc2c[nH]c4ccccc24)C(=O)N1)[C@@H](C)O)[C@@H](C)O)C(N)=O)C=C(C(C)(C)C)O3 (stereo partly shown) [Compound 5] (Ac-AGSCYCSGPPRFECWCYETEGTGGGK(X7)-NH2; disulfide 4-16, 6-14)	1.22	–	–	–	–
CC(=O)N[C@@H](C)C(=O)NCC(=O)N[C@@H](CO)C(=O)N[C@H]1CSSC[C@@H](C(=O)N[C@@H](Cc2ccc(O)cc2)C(=O)N[C@@H](CCC(=O)O)C(=O)N[C@H](C(=O)N[C@@H](CCC(=O)O)C(=O)NCC(=O)N[C@H](C(=O)NCC(=O)NCC(=O)NCC(=O)N[C@@H](CCCCNC(=O)CCCC2(C)C(/C=C/C=C3\C=C(C(C)(C)C)Oc4cc5c(cc43)C(C)=CC(C)(C)N5CCCS(=O)(=O)O)=[N+](CCCS(=O)(=O)[O-])c3ccc(S(=O)(=O)O)cc32)C(N)=O)[C@@H](C)O)[C@@H](C)O)NC(=O)[C@H](Cc2c[nH]c3ccccc23)NC(=O)[C@@H]2CSSC[C@H](NC(=O)[C@H](Cc3ccc(O)cc3)NC1=O)C(=O)N[C@@H](CO)C(=O)NCC(=O)N1CCC[C@H]1C(=O)N1CCC[C@H]1C(=O)N[C@@H](CCCNC(=N)N)C(=O)N[C@@H](Cc1ccccc1)C(=O)N[C@@H](CCC(=O)O)C(=O)N2 (stereo partly shown) [Compound 6] (Ac-AGSCYCSGPPRFECWCYETEGTGGGK(X8)-NH2; disulfide 4-16, 6-14)	1.57	–	–	–	–
